Article PMC12704579, “New Anticancer 4‐Aryldihydropyrimidinone‐5‐Carboxylates Targeting Hsp90” (Chemical Biology & Drug Design, 2025)
Values joined by “and” are separate entries in the source; they are usually repeats but may differ in a detail not shown here. Equal entries are not always repeated.

Key:
[1] = test system: BT474 cells; test: Colony forming assay, BT474; assay type: cell-based, human; settings: 7 days treatment at 10 μM
Experimental: (§1) Cells were seeded in a 12‐well plate at 400 cells per well. One hour after the seeding of the cells, compounds (1 mM, 100 μM, 10 μM, 1 μM, 100 nM, 10 nM) or vehicle were added into the wells in triplicate (DMSO vehicle 0.1% and 1%). After 7 days, colonies were stained with 350 μL of crystal violet solution, incubated for 30 min at room temperature, then wells were washed in water and dried. At least the best 3 independent experiments out of 5 independent repeats were used to perform the statistical analysis of the results. Colonies were counted by GelCount Colony Counter (Oxford Optronix Ltd.) using the GelCount 1.1.8.0 software. Assay end points were normalised to 0% (DMSO only) and fitted to a semi‐log plot using at least n = 3 technical replicates (n = 6 for DMSO control and N = 3 independent replicates). The curve fit was performed using GraphPad Prism.
(§2) Compound 5d was screened for the ability to inhibit colony formation in additional human cancer cell lines (Table 3). […] Sub‐micromolar IC50 values in HCC1954 and MDA‐MB‐231 cells were derived by testing over a six‐fold log concentration range. To further extend the profile of activity, the effect of 5d on the colorectal adenocarcinoma cell line SW‐480 was studied, with similarly potent effects on colony viability (Table 3).

[2] = test system: SW-480 cells; test: Colony forming assay, SW-480; assay type: cell-based, human
Experimental: (§3) Human Embryonic Kidney cells (HEK‐293) and human breast cancer cells (MCF‐7, MDA‐MB‐231 and HCC1954) were cultured in complete growth media: […] 1X (Gibco); 10% v/v Fetal Bovine Serum (FBS, Sigma Dorset UK) and L‐glutamine (2 mM, Invitrogen). SW‐480‐WT cells were maintained in selective media made up of Dulbecco's Modified Eagle Medium (Gibco), enriched with […] of Geneticin Selective Antibiotic (G418 Sulfate; Gibco, Thermo Fisher). Cells were incubated at a 5% CO2 atmosphere at 37°C.
as §1, with “Prism. […]” for “Prism.”

[3] = test system: HCC1954 cells; test: Colony forming assay, HCC1954; assay type: cell-based, human
Experimental: as §3
as §1, with “Prism. […]” for “Prism.”

[4] = test system: SKBR3 cells; test: Colony forming assay, SKBR3; assay type: cell-based, human; settings: 7 days treatment at 10 μM
Experimental: as §1, §2

[5] = CellTiter-Blue cell viability assay, HEK-293 (24 h); assay type: cell-based, human; settings: human, HEK-293 cells, CellTiter-Blue, 24 h incubation, 10 μM test compound, standardised to DMSO control
Experimental: as §3
(§4) Cells were cultured in 96‐well plates in 90 μL at a seeding density of 1 × 10^6 cells per well. Compound samples were prepared at different concentrations (1 mM, 100 μM, 10 μM, 1 μM, 100 nM, 10 nM) and 10 μL of each concentration was seeded in each well. Two different negative controls were used: DMSO 0.01% and 0.001%. Paclitaxel (30% w/v) was used as a positive control. Cells were treated for 24 h after which 20 μL of CellTitre‐Blue reagent (Promega, Southampton, UK) was added and incubated for 2 h at 37°C in 5% CO2. Fluorescence was measured at 560/590 nm on a Fluorostar Optima plate reader (BMG Labtech, Bucks, UK). Assay end points were normalised to 0% (DMSO only) and fitted to a semilog plot using at least n = 3 technical replicates (n = 6 for DMSO control and paclitaxel control) and N = 3 independent replicates. The curve fit was performed using the GraphPad Prism software and the standard Hill equation.
(§5) In view of previous reports on Hsp90 inhibitors and their effects on cancer cell viability (Eachkoti et al. [2014]) and clonogenicity (Kinzel et al. [2016]), new compounds were tested for inhibition of cell viability within both non‐tumourigenic (HEK‐293) and breast cancer cell lines (MDA‐MB‐231) at a fixed concentration of 10 μM. The well‐established CellTiter‐Blue endpoint assay was used to assess cell viability. New compounds were also assessed in a colony forming assay (MCF‐7 breast cancer cell line), used as an efficacy screening to provide an indication of the inhibition of clonogenicity for these small molecules (Table 1).

[6] = test system: HEK-293 cells; test: as above; assay type: cell-based, human; settings: for GI50: Homo sapiens, HEK293, 24 h incubation time
Experimental: as §3, §4, §5

[7] = test system: MDA-MB-231 cells; test: Colony forming assay, MDA-MB-231; assay type: cell-based, human
Experimental: as §3
as §1, with “Prism. […]” for “Prism.”

[8] = Human microsomal stability (Cyprotex); assay type: in vitro ADME; settings: human microsomes; for microsomal CLint: read-out: Metabolic stability (human microsomes) CLint; for half-life: read-out: Metabolic stability (human microsomes) Half-life
Experimental: All the selected analogues were calculated to be compliant with the Lipinski rule‐of‐five guidelines for oral bioavailability. Furthermore, in vitro ADME (absorption, distribution, metabolism, excretion) properties were assessed as an outsourced service (Cyprotex Discovery Ltd., UK; part of the EvoTec Group); profiling membrane permeability (Caco‐2 cell model), hERG channel cardiotoxicity, human microsomal stability and turbidometric solubility (Table 4).

[9] = test system: MCF-7 cells; test: Colony forming assay, MCF-7; assay type: cell-based, human; settings: for IC50: Homo sapiens, MCF7, 168 h, 7 days; for % Clonogenicity (MCF-7, 10 μM): percentage of survival colonies, 7-day incubation, standardised to DMSO control
Experimental: as §3, §1, §5

IC50 ([2]; Homo sapiens, SW480, read-out: Colony formation IC50, SW-480) | IC50 ([3]; Homo sapiens, HCC1954, read-out: Colony formation IC50, HCC1954) | IC50 ([7]; Homo sapiens, MDA-MB-231, read-out: Colony formation IC50, MDA-MB-231) | microsomal CLint [8] | half-life [8] | IC50 [9] | Structure (SMILES) | Percentage of surviving colonies, BT474 [1] | Percentage of surviving colonies, SW-480 ([2]; 7 days treatment at 10 μM) | Percentage of surviving colonies, HCC1954 ([3]; 7 days treatment at 10 μM) | Percentage of surviving colonies, SKBR3 [4] | viability at 24 h, 10 µM [5] | GI50 [6] | Percentage of surviving colonies, MDA-MB-231 ([7]; 7 days treatment at 10 μM) | % Clonogenicity (MCF-7, 10 μM) [9] | % Viability (HEK-293, 10 μM) ([6]; CellTiter-Blue, 24 h incubation, 10 μM test compound, standardised to DMSO control, 10 µM)
1210 nM | 560 nM | 620 nM | 34.6 µL/min/mg | 40.1 min | 290 nM | COc1ccc(C2NC(=O)NC(C)=C2C(=O)OCc2ccc3c(c2)OCO3)c(F)c1 (stereo not drawn) [Compound 5d, Benzo[d][1,3]dioxol‐5‐ylmethyl‐4‐(2‐Fluoro‐4‐Methoxyphenyl)‐6‐Methyl‐2‐Oxo‐1,2,3,4‐Tetrahydropyrimidine‐5‐Carboxylate] | 80.4% ± 8.0 | 57.9% ± 2.0 | 8.8% ± 4.0 | 94.4% ± 2.1 | 99.9 ± 4.53% | 92400 nM | 11.9% ± 2.9 | 49.75% and 49.75 ± 4.35% | –
– | – | – | 108 µL/min/mg | 12.8 min | 910 nM | COc1ccc(COC(=O)C2=C(C)NC(=O)NC2c2ccc(Cl)cc2)cc1C (stereo not drawn) [Compound 5e, 4‐Methoxy‐3‐Methylbenzyl‐4‐(4‐Chlorophenyl)‐6‐Methyl‐2‐Oxo‐1,2,3,4‐Tetrahydropyrimidine‐5‐Carboxylate] | – | – | – | – | 82% | 86300 nM | – | 59.96 ± 1.95% | 82.07 ± 1.28%
